Assay results: US6432415B1, “Pharmaceutical gel and aerosol formulations and methods to administer the same to skin and mucosal surfaces” (Axrix Laboratories, Inc., priority 1999, dated 2002)
≈ marks a conversion by molar mass, not a printed value.

Legend:
Assay type in all cases: physicochemical
[1] = Solubility of Amlexanox in solvents and at different pH
Procedure: To illustrate the many aspects of the present invention, it is provided herein several Examples of formulations which comprise a specific not-very-soluble drug known as Amlexanox or 2-amino-7-(1-methylethyl)-5-oxo-5H-[1]benzopyrano-[2,3-b]-pyridine-3-carboxylic acid. Amlexanox is not very soluble in lower alkyl alcohols (0.58 mg/mL, in dehydrated ethanol) or water (0.005 mg/mL). However, solubility of Amlexanox increases with pH. […] Thus, at any given time, Amlexanox may be present in the formulation as a solution or suspension or both.

[2] = Solubility of Amlexanox in 95% ethanol with imidazole (visual observation); conditions: 200 mM imidazole vs no imidazole
Procedure: Amlexanox (4.8 mg to 20.5 mg) was added to seven glass scintillation vials. 95% Ethanol (in 5-100 uL aliquots) with various concentrations of imidazole (0-200 mM) was added to the vials containing Amlexanox. The total volume of 95% ethanol added to result in Amlexanox solubilization (by visual observation) was recorded.

[3] = Solubility of Propellant 152a in aqueous and ethanol/water solvents, with or without ethyl cellulose
Procedure: In one aspect, the propellant is 1,1-difluoroethane also known as Propellant 152a, commercially available under the trade mark Dymel®. Propellant 152a is slightly soluble in aqueous solvents (solubility of less than 1% by weight).
The inventors have experimented with ethanol as a cosolvent to be used in conjunction with Propellant 152a. When water is added to the ethanol/Propellant 152a mixture, the solubility of Propellant 152a decreases. […] This unexpected increase in solubility was not observed when hydroxyethyl cellulose or hydroxypropyl cellulose was used instead of ethyl cellulose.

| solubility of Propellant 152a ([3]; aqueous solvents) | solubility of Propellant 152a ([3]; ethyl cellulose about 0.7% to about 1.4%, ethanol/water (80:20)) | solubility of Propellant 152a ([3]; ethyl cellulose about 0.75% to about 10% added to ethanol or ethanol/water mixtures) [%] | solubility of Propellant 152a ([3]; mixture of ethanol/water (80:20), no ethyl cellulose) | Structure (SMILES) | solubility ([1]; aqueous buffer, pH 3.0) [µg/mL] | solubility ([1]; in water) [µg/mL] | solubility ([1]; organic solvent or mixture, in dehydrated ethanol) [µg/mL] | solubility ([1]; pH 5.96, aqueous buffer) [µg/mL] | solubility in 95% ethanol with 200 mM imidazole relative to absence of imidazole [2] |
| --- | --- | --- | --- | --- | --- | --- | --- | --- | --- |
| – | – | – | – | CC(C)c1ccc2oc3nc(N)c(C(=O)O)cc3c(=O)c2c1 [Amlexanox, 2-amino-7-(1-methylethyl)-5-oxo-5H-[1]benzopyrano-[2,3-b]-pyridine-3-carboxylic acid] | 12 (≈ 40.2 µM) | 5 (≈ 16.8 µM) | 580 (≈ 1940 µM) | 15300 (≈ 51300 µM) | approximately 7.5 fold |
| less than 1 % by weight | 62-64% | 62 to 64 | about 49% | CC(F)F [Propellant 152a, 1,1-difluoroethane] | – | – | – | – | – |
